Patent US10047059B2, “Substituted quinoxalines for inhibiting kinase activity” (NEUPHARMA, INC., priority 2012, dated 2018)

How the values were obtained:
Colo205 cells = assay: Inhibition of cancer cell growth, MTT or MTS assay, Colo205; format: cell-based; conditions: Homo sapiens, COLO 205, 72 h incubation
Procedure: (§1) Inhibition of cell growth by compounds was measured using MTT or MTS assay. Tumor cell lines were purchased from ATCC (American Type Culture Collection, Manassas, Va.). All cell lines were maintained in RPMI 1640 (Hyclone) supplemented with 10% fetal bovine serum (FBS, Hyclone), glutamine (2 mM, Hyclone), and antibiotics (penicillin 100 U/mL and streptomycin 50 μg/mL) at 37° C. in a humidified atmosphere of 5% CO2 in air. Taxol (as a positive control, Sigma) and compounds were dissolved in DMSO (Sigma), and the final concentration of DMSO in the medium was 1%. Tumor cells were plated in 96-well plates at densities of about 2000 (A375) or 4000 (A549 and Colo205) cells/well of a 96-well plate and allowed to adhere/grow for 24 h. They were then treated with various concentrations of drug and incubated for 72 h. For MTT method, medium was then removed by inverting and tapping the plates. 100 μL of MTT (0.5 mg/ml) was added to each well followed by an incubated at 37° C. for 4 h. MTT was then removed and 200 μL of DMSO was added to each well, and the ODs at 570 nm were measured after a 5 second shaking cycle in a 96-well spectrophotometer. For MTS method, 20 μL MTS (CellTiter 96 Aqueous One Solution, Promega) was added to each well followed by an incubated at 37° C. for 2-4 h, solutions were then directly put in a 96-well spectrophotometer, and the ODs at 490 nm were measured.
(§2) All concentrations of compounds were tested in triplicate and controls were averaged over 4 wells. IC50 was calculated by plotting the concentration of compound vs the percentage of inhibition in treated wells using GraphPad Prism 5. […] The scale utilized in Tables 7-9 is as follows: +++ less than 1000 nM; ++ between 1000 nM and 5000 nM; and + greater than 5000 nM. The scale utilized in […]

A375 cells = assay: Inhibition of cancer cell growth, MTT or MTS assay, A375; format: cell-based; conditions: Homo sapiens, A-375, 72 h incubation
Procedure: as §1, §2

BRAF V600E = molecular target: T1, BRAF V600E (Homo sapiens, UniProt P15056, V600E); assay: Z'-LYTE kinase inhibition assay against BRAF V600E; format: biochemical; conditions: % inhibition at 1 μM, Z'-LYTE method
T1 construct: purchased Invitrogen
T1 sequence (P15056 whole entry V600E): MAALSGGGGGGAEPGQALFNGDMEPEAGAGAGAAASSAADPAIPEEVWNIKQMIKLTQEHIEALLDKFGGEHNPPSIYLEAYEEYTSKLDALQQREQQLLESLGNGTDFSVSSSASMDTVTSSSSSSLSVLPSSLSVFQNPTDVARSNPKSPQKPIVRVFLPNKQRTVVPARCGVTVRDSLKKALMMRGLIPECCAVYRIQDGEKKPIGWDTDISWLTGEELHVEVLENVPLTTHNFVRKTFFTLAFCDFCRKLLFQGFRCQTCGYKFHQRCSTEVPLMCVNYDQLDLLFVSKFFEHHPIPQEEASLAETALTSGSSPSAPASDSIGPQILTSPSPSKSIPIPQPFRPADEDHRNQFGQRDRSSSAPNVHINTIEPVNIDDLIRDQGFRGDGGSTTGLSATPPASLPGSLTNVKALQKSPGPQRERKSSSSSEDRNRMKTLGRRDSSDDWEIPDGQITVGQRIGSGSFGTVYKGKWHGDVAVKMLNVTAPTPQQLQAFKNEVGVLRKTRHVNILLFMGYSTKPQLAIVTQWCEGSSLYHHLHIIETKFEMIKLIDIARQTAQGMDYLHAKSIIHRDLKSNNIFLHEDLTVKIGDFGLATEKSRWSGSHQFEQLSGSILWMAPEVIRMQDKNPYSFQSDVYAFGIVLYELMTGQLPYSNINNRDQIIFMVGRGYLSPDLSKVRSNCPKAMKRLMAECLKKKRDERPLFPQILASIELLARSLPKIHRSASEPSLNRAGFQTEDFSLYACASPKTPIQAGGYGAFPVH
Procedure: (§3) Inhibitory activities Inhibitory activities of compounds against BRAF, and BRAF V600E were measured by Invitrogen using Z′-LYTE® Method as briefly described in the following. 4× Test compounds are dissolved in 1% DMSO. […] ATP solutions are diluted to a 4×ATP working concentration in Kinase Buffer (50 mM HEPES pH 7.5, 0.01% BRIJ-35, 10 mM MgCl2, 1 mM EGTA). Reaction started by 30-second shaking of mixture consisting of 2.5 μL 4× test compound, […] and 2.5 μL 4×ATP Solution on Bar-coded Corning, low volume NBS, black 384-well plate (Corning Cat. #3676). Then the mixture was incubated for 60-minute at room temperature for the kinase reaction, followed by addition of 5 μL of a 1:1024 dilution of development reagent A and 30-second plate shake. The mixture was then incubated for another 60-minute at room temperature for development reaction. Fluorescence was read by plate reader. IC50 was calculated by plotting the concentration of compound vs the percentage of inhibition in treated wells using GraphPad Prism 5.
(§4) Table 2 and 3 show % inhibition at 1 μM of several compounds of the invention against BRAF and BRAF V600E, respectively, using Z′-LYTE® method.
The scale utilized in Table 4 is as follows: +++ less than 100 nM; and ++ greater than 100 nM.

BRAF = molecular target: T2, BRAF (Homo sapiens, UniProt P15056); assay: Z'-LYTE kinase inhibition assay against BRAF; format: biochemical; conditions: Z'-LYTE method
T2 construct: purchased Invitrogen
T2 sequence (P15056 whole entry): as the sequence (P15056 whole entry V600E) above, with E600V counted along it
Procedure: as §3, §4

KDR (VEGFR2) = molecular target: T3, KDR (VEGFR2) (Homo sapiens, UniProt P35968); assay: Z'-LYTE kinase inhibition assay against KDR; format: biochemical; conditions: Z'-LYTE method
T3 construct: purchased Invitrogen
T3 sequence (P35968 20-1356): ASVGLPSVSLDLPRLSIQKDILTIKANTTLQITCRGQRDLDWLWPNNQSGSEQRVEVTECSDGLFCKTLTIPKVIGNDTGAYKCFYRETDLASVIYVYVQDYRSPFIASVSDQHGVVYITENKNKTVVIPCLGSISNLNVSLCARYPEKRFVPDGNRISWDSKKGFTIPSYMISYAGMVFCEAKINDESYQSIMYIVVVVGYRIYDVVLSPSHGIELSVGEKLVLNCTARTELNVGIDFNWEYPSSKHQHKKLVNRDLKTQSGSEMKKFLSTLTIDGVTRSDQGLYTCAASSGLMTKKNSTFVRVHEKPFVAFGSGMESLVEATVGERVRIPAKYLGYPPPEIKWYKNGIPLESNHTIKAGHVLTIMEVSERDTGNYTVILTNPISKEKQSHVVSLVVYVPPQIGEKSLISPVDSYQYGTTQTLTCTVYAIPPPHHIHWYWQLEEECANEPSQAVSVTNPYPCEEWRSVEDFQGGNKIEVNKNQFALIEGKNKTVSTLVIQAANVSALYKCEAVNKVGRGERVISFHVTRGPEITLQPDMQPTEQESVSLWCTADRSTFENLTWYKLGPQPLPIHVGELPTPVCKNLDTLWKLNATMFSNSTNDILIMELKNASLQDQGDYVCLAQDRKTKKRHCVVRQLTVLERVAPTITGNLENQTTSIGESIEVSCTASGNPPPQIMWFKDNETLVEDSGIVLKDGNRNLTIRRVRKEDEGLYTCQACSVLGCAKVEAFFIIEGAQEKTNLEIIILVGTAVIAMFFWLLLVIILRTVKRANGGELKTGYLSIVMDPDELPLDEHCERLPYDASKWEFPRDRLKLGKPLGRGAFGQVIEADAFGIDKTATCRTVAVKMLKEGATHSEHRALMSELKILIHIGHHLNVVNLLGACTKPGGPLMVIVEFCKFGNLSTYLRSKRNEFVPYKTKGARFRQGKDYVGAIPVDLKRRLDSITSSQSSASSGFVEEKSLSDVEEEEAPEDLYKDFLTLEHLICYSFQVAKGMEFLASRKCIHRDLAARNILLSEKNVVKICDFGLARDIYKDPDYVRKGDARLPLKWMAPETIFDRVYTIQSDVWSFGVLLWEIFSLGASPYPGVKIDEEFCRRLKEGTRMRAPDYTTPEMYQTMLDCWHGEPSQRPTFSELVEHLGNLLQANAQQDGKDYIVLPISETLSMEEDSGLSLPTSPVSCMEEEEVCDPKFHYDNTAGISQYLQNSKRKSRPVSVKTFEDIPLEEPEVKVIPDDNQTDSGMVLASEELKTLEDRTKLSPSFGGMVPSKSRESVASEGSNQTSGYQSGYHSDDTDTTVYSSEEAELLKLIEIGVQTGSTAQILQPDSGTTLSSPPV
Procedure: Inhibitory activities of compounds against KDR (VEGFR2) were also measured by Invitrogen using Z′-LYTE® Method as described above with the following modification. The 2×KDR (VEGFR2)/Tyr 01 mixture is prepared in 50 mM HEPES pH 7.5, 0.01% BRIJ-35, 10 mM MgCl2, 1 mM EGTA. The final 10 μL Kinase Reaction consists of 0.5-11.7 ng KDR (VEGFR2) and 2 μM Tyr 01 in 50 mM HEPES pH 7.5, 0.01% BRIJ-35, 10 mM MgCl2, 1 mM EGTA. After the 1 hour Kinase Reaction incubation, 5 μL of a 1:256 dilution of Development Reagent B is added.
The scale utilized in Table 6 is as follows: +++ less than 100 nM; and ++ greater than 100 nM

A549 cells = assay: Inhibition of cancer cell growth, MTT or MTS assay, A549; format: cell-based; conditions: Homo sapiens, 72 h incubation
Procedure: as §1, §2

SMILES | IC50 (Colo205 cells) | IC50 (A375 cells) | inhibition at 1 µM (BRAF V600E) | inhibition at 1 µM (BRAF) | inhibition at 1 µM (KDR (VEGFR2)) | IC50 (A549 cells) | IC50 (KDR (VEGFR2))
O=C(Nc1ccc(C(=O)c2ccc3nccnc3c2)cc1)Nc1cccc(C(F)(F)F)c1 [Compound C01, 1-(4-(quinoxaline-6-carbonyl)phenyl)-3-(3-(trifluoromethyl)phenyl)urea] | > 5000 nM | 1000 to 5000 nM | > 89% | < 70% | < 70% | > 5000 nM | 
O=C(Nc1ccc(C(=O)c2ccc3nccnc3c2)cc1)Nc1cccc(F)c1 [Compound C02, 1-(3-fluorophenyl)-3-(4-(quinoxaline-6-carbonyl)phenyl)urea] |  | 1000 to 5000 nM | < 70% | < 70% | < 70% | 1000 to 5000 nM | 
O=C(Nc1ccc(C(=O)c2ccc3ncc(N4CCOCC4)nc3c2)cc1)Nc1cccc(Cl)c1 [Compound C03, 1-(3-chlorophenyl)-3-(4-(3-morpholinoquinoxaline-6-carbonyl)phenyl)urea] |  | 1000 to 5000 nM | < 70% | < 70% | < 70% | 1000 to 5000 nM | 
O=C(Nc1ccc(Cl)cc1)Nc1ccc(C(=O)c2ccc3ncc(N4CCOCC4)nc3c2)cc1 [Compound C04, 1-(4-chlorophenyl)-3-(4-(3-morpholinoquinoxaline-6-carbonyl)phenyl)urea] |  |  | < 70% | < 70% | < 70% | 1000 to 5000 nM | 
O=C(Nc1ccc(F)cc1)Nc1ccc(C(=O)c2ccc3ncc(N4CCOCC4)nc3c2)cc1 [Compound C05, 1-(4-fluorophenyl)-3-(4-(3-morpholinoquinoxaline-6-carbonyl)phenyl)urea] |  | > 5000 nM | < 70% | < 70% | < 70% | > 5000 nM | 
O=C(Nc1ccc(Cl)cc1)Nc1ccc(C(=O)c2ccc3ncc(N4CCNCC4)nc3c2)cc1 [Compound C09, 1-(4-chlorophenyl)-3-(4-(3-(piperazin-1-yl)quinoxaline-6-carbonyl)phenyl)urea] | 1000 to 5000 nM | 1000 to 5000 nM | > 89% | 70 to 89% | < 70% | 1000 to 5000 nM | 
O=C(Nc1ccc(F)cc1)Nc1ccc(C(=O)c2ccc3ncc(N4CCNCC4)nc3c2)cc1 [Compound C10, 1-(4-fluorophenyl)-3-(4-(3-(piperazin-1-yl)quinoxaline-6-carbonyl)phenyl)urea] |  | 1000 to 5000 nM | > 89% | < 70% | < 70% | 1000 to 5000 nM | 
O=C(Nc1ccc(C(=O)c2ccc3ncc(N4CCNCC4)nc3c2)cc1)Nc1cccc(Cl)c1 [Compound C11, 1-(3-chlorophenyl)-3-(4-(3-(piperazin-1-yl)quinoxaline-6-carbonyl)phenyl)urea] | < 1000 nM | 1000 to 5000 nM | > 89% | 70 to 89% | 70 to 89% | 1000 to 5000 nM | > 100 nM
O=C(Nc1ccc(C(=O)c2ccc3ncc(N4CCNCC4)nc3c2)cc1)Nc1ccc(Cl)c(C(F)(F)F)c1 [Compound C12, 1-(4-chloro-3-(trifluoromethyl)phenyl)-3-(4-(3-(piperazin-1-yl)quinoxaline-6-carbonyl)phenyl)urea] | 1000 to 5000 nM | < 1000 nM | 70 to 89% | < 70% | 70 to 89% | < 1000 nM | > 100 nM
O=C(Nc1ccc(C(=O)c2ccc3ncc(N4CCNCC4)nc3c2)cc1)Nc1ccc(C(F)(F)F)cc1 [Compound C13, 1-(4-(3-(piperazin-1-yl)quinoxaline-6-carbonyl)phenyl)-3-(4-(trifluoromethyl)phenyl)urea] |  | < 1000 nM | > 89% | < 70% | < 70% | 1000 to 5000 nM | 
N#Cc1ccc(NC(=O)Nc2ccc(C(=O)c3ccc4ncc(N5CCNCC5)nc4c3)cc2)cc1C(F)(F)F [Compound C16, 1-(4-cyano-3-(trifluoromethyl)phenyl)-3-(4-(3-(piperazin-1-yl)quinoxaline-6-carbonyl)phenyl)urea] | > 5000 nM | < 1000 nM | > 89% | < 70% | > 89% | 1000 to 5000 nM | > 100 nM
O=C(Nc1ccc(C(=O)c2ccc3ncc(N4CCNCC4)nc3c2)cc1)Nc1cccc(F)c1 [Compound C19, 1-(3-fluorophenyl)-3-(4-(3-(piperazin-1-yl)quinoxaline-6-carbonyl)phenyl)urea] |  | 1000 to 5000 nM | > 89% | < 70% | < 70% | 1000 to 5000 nM | 
O=C(Nc1cccc(F)c1)Nc1ccc(C(=O)c2ccc3ncc(N4CCNCC4)nc3c2)c(F)c1 [Compound C20, 1-(3-fluoro-4-(3-(piperazin-1-yl)quinoxaline-6-carbonyl)phenyl)-3-(3-fluorophenyl)urea] |  | 1000 to 5000 nM | > 89% | < 70% | < 70% | > 5000 nM | 
N#Cc1ccc(CC(=O)Nc2ccc(C(=O)c3ccc4ncc(N5CCNCC5)nc4c3)c(F)c2)cc1C(F)(F)F [Compound C26, 2-(4-cyano-3-(trifluoromethyl)phenyl)-N-(3-fluoro-4-(3-(piperazin-1-yl)quinoxaline-6-carbonyl)phenyl)acetamide] |  | < 1000 nM | > 89% | < 70% | > 89% | < 1000 nM | < 100 nM
O=C(Nc1ccc(C(=O)c2ccc3ncc(C4CCNCC4)nc3c2)cc1)Nc1cccc(C(F)(F)F)c1 [Compound C27, 1-(4-(3-(piperidin-4-yl)quinoxaline-6-carbonyl)phenyl)-3-(3-(trifluoromethyl)phenyl)urea] |  | > 5000 nM | 70 to 89% |  | < 70% | > 5000 nM | 
O=C(Nc1ccc(C(=O)c2ccc3ncc(C4CCNCC4)nc3c2)cc1)Nc1ccc(F)c(C(F)(F)F)c1 [Compound C28, 1-(4-fluoro-3-(trifluoromethyl)phenyl)-3-(4-(3-(piperidin-4-yl)quinoxaline-6-carbonyl)phenyl)urea] |  | 1000 to 5000 nM | 70 to 89% | < 70% | < 70% | > 5000 nM | 
N#Cc1cnc2ccc(C(=O)c3ccc(NC(=O)Nc4cccc(C(F)(F)F)c4)cc3F)cc2n1 [Compound C29, 1-(4-(3-cyanoquinoxaline-6-carbonyl)-3-fluorophenyl)-3-(3-(trifluoromethyl)phenyl)urea] |  | 1000 to 5000 nM | < 70% |  | < 70% | 1000 to 5000 nM | 
Cn1ccc(NC(=O)Nc2ccc(C(=O)c3ccc4ncc(N5CCNCC5)nc4c3)c(F)c2)n1 [Compound C31, 1-(3-fluoro-4-(3-(piperazin-1-yl)quinoxaline-6-carbonyl)phenyl)-3-(1-methyl-1H-pyrazol-3-yl)urea] |  | 1000 to 5000 nM | 70 to 89% |  | < 70% | > 5000 nM | 
